Patent publication US20170154163A1, “CLINICALLY RELEVANT SYNTHETIC LETHALITY BASED METHOD AND SYSTEM FOR CANCER PROGNOSIS AND THERAPY” (Ramot at Tel-Aviv University Ltd., priority 2015, published 2017)
pIC50: −log10 of the molar value. Read-outs that look alike come from different tables or passages of the source.

Columns and labels:
[1] = test system: Liv7k cell line (oral cancer); assay: Drug repurposing screen: growth inhibition of oral cancer cell line under normoxia and hypoxia (nuclei count); assay type: cell-based; conditions: Homo sapiens; for inhibition at 10 µM: 72 h, read-out: Growth Inhibition (GI)
Description: HPV-negative cell line derived from a T3N2b primary tumor of the tongue. The patient received no chemo/radiotherapy prior to tumor excision. Generously gifted by Professor Richard Shaw (Head and Neck Cancer Consultant, Liverpool, UK). Cells are maintained in keratinocyte SFM (Life Technologies), supplemented with 2 mM L-glutamine, 0.2 ng/ml epidermal growth factor (EGF) and 25 μg/ml bovine pituitary extract (BPE). The cell line was tested from mycoplasma contamination and authenticated by exome sequencing and CNV.
1397 compounds from the NIH Clinical Collection (Evotec, San Francisco, Calif.), LOPAC Pfizer (Sigma Aldrich), the Developmental Therapeutics Program (DTP)-Approved Oncology library and the FDA-Approved Drug Library (Selleck Chemicals) were tested at a single concentration of 10 μM. The libraries were received as 10 mM compounds in dimethyl sulfoxide (DMSO). Plates which conflicted with our plate layout were reformatted. The compounds were first diluted 1:50 in serum free media, and then further diluted 1:20 into to 96 well plates containing 5000 cells in 190 μl of keratinocyte SFM supplemented with 2 mM L-glutamine, 0.2 ng/ml EGF and 25 μg/ml BPE. 0.1% DMSO was used as a negative control, and staurosporine (Sigma Aldrich) at a concentration of 1 μM was used as a positive death control in all plates. Each drug was tested for 72 h under 21% and 0.1% O2. The cells were fixed using 4% formaldehyde after 72 h, and stained with DAPI dilactate (Sigma Aldrich). To assess viability, stained nuclei were counted using Perkin Elmer Operetta High Content Microscope.
An experimental screen was designed for testing whether the clinical SL-network can discriminate between cytotoxic and non-cytotoxic drugs, when considering a wide range of oncology and non-oncology drugs. Transcriptomic profiles of an oral cancer cell line under normoxia and hypoxia were obtained. Based on these profiles the network predicted the cell line response to 139 oncology and 531 non-oncology drugs in each condition. […]

[2] = test system: pancreatic cancer cells (Capan-1); assay: Drug combination with olaparib, Combination Index by Chou-Talalay method (CompuSyn); assay type: cell-based, human; conditions: CI<0.9 denotes synergism
Description: The experiment was conducted in triplicates.

| pIC50 ([1]; normoxia) | Compound | inhibition at 10 µM ([1]; hypoxia (0.1% O2)) [%] | inhibition at 10 µM ([1]; normoxia (21% O2)) [%] | median Combination Index (CI) [2] |
| --- | --- | --- | --- | --- |
| 5.24 | CN(C/C=C/C#CC(C)(C)C)Cc1cccc2ccccc12 [terbinafine] | 45.2 | 81.9 |  |
|  | COc1cc([C@@H]2c3cc4c(cc3[C@@H](O[C@@H]3O[C@@H]5CO[C@@H](C)O[C@H]5[C@H](O)[C@H]3O)[C@H]3COC(=O)[C@H]23)OCO4)cc(OC)c1O [Etoposide (VP16), etoposide] |  |  | 0.718 |
|  | O=C(CCCCCCC(=O)Nc1ccccc1)NO [VORINOSTAT, vorinostat] |  |  | 0.551 |
